The source of these data is patent US10590121B2, “Kinase inhibitors and methods for making and using” (Rigel Pharmaceuticals, Inc., priority 2017, dated 2020).

Test [1] concerns LPS induced IL23p19 in THP-1 cells. Briefly: LPS Induced IL23p19 in THP-1 Cells (with IFNγ Primed) Assay. The format is cell-based. The conditions noted are these: Homo sapiens; THP-1 cells primed with IFNγ 50 ng/mL, 1 μg/mL LPS, 18 hours, 10 pt; read-out: IL23-p19 ELISA, THP1-IFNy, LPS, 10 pt EC50. The source says: LPS Induced IL23p19 in THP-1 Cells (with IFNγ Primed) Assay
THP-1 Cells (ATCC, Cat # TIB-202), Dimethyl Sulfoxide (DMSO) (Sigma-Aldrich, Cat # D2650), RPMI 1640 (Cellgro, Cat #10-040-CM), Fetal Bovine Serum (Sigma, Cat # F4135), Albumin From Bovine Serum (BSA) (Sigma-Aldrich, Cat # A7906), LPS (Serotype K-235, Sigma, Product Number L 2143), IFNγ (Peprotech, Cat #300-02), Capture antibody: Human IL-23p19 ELISA (e-Bioscience, Cat. #14-7238-85), Detection antibody: Primary Mouse Biotinylated anti-human IL-12 (p40/p70) (e-Bioscience, Cat. #13-7129-85), Secondary HRP-conjugated Streptavidin (R&D Systems, Cat # DY998), 1×PBST Washing Buffer (PBS-Tween tablet) (VWR International, Cat #80058-558), ELISA Blocking Buffer (PBS with 1% BSA), ELISA Dilution Buffer (PBS with 1% BSA), 384 Well Flat-Bottom, MaxiSorp Black Immuno Plates (Thermo Scientific, Cat #12-565-346), 384 Well Flat-Bottom, White Tissue Culture Plates (Thermo Scientific, Cat #12-565-343), Super Signal ELISA Pico Chemiluminescent Substrate (Thermo Scientific, Cat #37070), Cell Titer Glo reagent (Promega, Cat # G7573), Positive control, IKK2VI inhibitor (Calbiochem, Cat #401483), AquaMax 4000 plate washer (Molecular Devices), Luminometer, Wallac Victor2 1420 Multilabel Counter.
On day 1, 50K/well THP-1 cells were seeded and primed with IFNγ (50 ng/mL) in 384-well plates for about 18 hours in RPMI media with 10% FBS. On day 2, the compound was serially diluted in DMSO from 5 mM in 3-fold dilutions, and then diluted 1:125 in RPMI media with 10% FBS. 50 μL/well 2× compound was added to 50 μL/well THP-1 cells (with IFNγ primed) in duplicate in 384 well tissue culture plates. The cells were pre-incubated with compound for 1 hour at 37° C., 5% CO2 before addition of 10 μL/well 11×LPS to give a final concentration of 1 μg/mL LPS. Day 3, after stimulation for 18 hours at 37° C., 5% CO2, the assay plate was centrifuged and 70 μL/well supernatant was harvested. IL-23p19 protein in 70 μL/well of supernatant was measured by sandwich ELISA, and 25 μl/well Cell Titer Glo reagent was added to the remaining cells to measure compound toxicity.
Human IL-23p19 Sandwich ELISA:
Maxisorp immuno ELISA plates were pre-coated with 25 μL/well of anti-IL-23p19 capture antibody (2.5 ug/mL) in PBS overnight at room temperature. After washing with 1×PBST, the plates were blocked using 100 μL/well of 1% BSA in PBS for 2 hours at room temperature. The plates were washed three times with 1×PBST and 70 μL/well supernatant were added. The plates were incubated at room temperature for 2 hours with shaking and washed three times with 1×PBST. 25 μL/well of biotin labeled anti-IL-12 (p40/p70) detection antibody (100 ng/mL) in PBS with 1% BSA was added and the plates were incubated at room temperature for 2 hours with shaking. After washing three times with 1×PBST, 25 μL/well of streptavidin-HRP (1:200) in PBS with 1% BSA was added and the plates were incubated at room temperature for 20 minutes with shaking. The plates were washed three times with 1×PBST and 25 μL/well of Super Signal ELISA Pico Chemiluminescent Substrate were added. The plates were read with a luminometer, and the chemiluminescence values were entered into Athena (Rigel) for curve fitting, EC50 calculation, and database storage.
For orientation: In an ELISA, binding on a coated surface is turned into a signal by an enzyme label.

Test [2] deals with LPS induced IL-23 (p19/p40) in DC cells differentiated from human PBMC. Briefly: IL23-p19 ELISA, dendritic cells (DC differentiated from human PBMC), IFNγ primed, LPS stimulated. It is filed as cell-based. The note with it: human PBMC-derived dendritic cells, 1 μg/ml LPS, 18 hours, 10 pt. The procedure: Compound Screening Using DC Cells
1. Differentiation of PBMC's to DC Cells:
Human PBMC cells (400 million) obtained from the vendor were transferred into a T-175 flask containing 15 ml RPMI media (10% FBS) and incubate for 2 hours at 37° C. After 2 hours, the media including floating cells was aspirated out carefully and 12 ml of fresh RPMI media (10% FBS) containing GMCSF (100 ng/ml) and IL4 (20 ng/ml) was added, and the flask was kept in a 37° C. incubator for 7 days.
After 3 days, fresh GMCSF (100 ng/ml) and IL4 (20 ng/ml) were added to the flask and the incubation continued. After 7 days, the fully differentiated cells were harvested by spinning down (1200 rpm/5 min) and aspirating the media. The cells were suspended in fresh RPMI media (10% FBS) containing 50 ng/ml IFNγ (1000 U/ml) and then plated (50K/well in 100 μl) onto a white clear bottom 96 well plate and left in a 37° C. incubator for 24 hours.
2. Addition of Compounds:
After 24 hours incubation, 100 μl of RPMI media was added containing 2× concentrated test compound per well to the above cell-culture media (final concentration becomes 1×) and the plates were pre-incubated for 1 hour at 37° C. before stimulating with LPS.
After 1 hour compound pre-incubation, 10 μl per well of 20× concentrated LPS solution in RPMI media was added to give a final concentration of 1 μg/ml. The mixture was shaken and incubated the plates at 37° C. for an additional 18 hours.
155 μl of the supernatant was harvested from each well carefully (without the tip touching the bottom of the well) and to the remaining 50 μl/well of the cell culture plate was added 50 μl of Cell Titer Glo reagent. The mixture was incubated for 1-2 minutes on a shaker and the plate was read for luminescence intensity to determine the compound cytotoxicity. The cell culture supernatant collected above was used to carry out IL23 ELISA (65 μl-Supernatant) and IL10 ELISA (90 μl-Supernatant) as described below.
Human IL-23 (p19/p40) ELISA Protocol (e-Biosciences)
To 10.5 ml PBS add 50 μl of anti-IL23 (p19) was added capture antibody (2.5 μg/ml). The mixture was mixed well and 100 μl of the coating solution was added to each well of the 96 well white plates from Pierce. The wells were covered and incubated overnight at 4° C.
The anti-IL23 (p19)-antibody-coated plates were washed 2× using TBST (use plate washer) and blocked using 200 μl of 0.5% Casein for 1.5-2 hours at room temperature with shaking.
The plates were washed 2× using TBST and the supernatant was transferred (65 μl/well) to the above pre-blocked/IL23 (p19)-antibody-coated 96 well plate, and incubated at room temperature for 1.5 hours with shaking.
The plates were washed 4× using TBST (plate washer) and 100 μl/well detection antibody solution prepared from 2 μl of biotin labeled anti-IL-12 (p40/p70) antibody in 11 ml 1% BSA/PBS solution (1-5000 dilution) was added. The plates were incubated for 1 hour with shaking at room temperature.
Again, the plates were washed 4× with TBST and 100 μl of HRP labeled Streptavidin (R&D Systems) solution (10 μl/10 ml 1% BSA solution) was added, and the plates were incubated at room temperature for another 45 minutes with shaking.
After 45 minutes, the plates were washed with TBST 4× and 100 ul/well Super Signal ELISA Pico Chemiluminescent Substrate from Pierce (3.5 ml A+3.5 ml B+3.5 ml MQ water) was added. The plates were shaken for 1-2 minutes then read on a plate reader.

In the case of `O=C(Nc1ccc(N2CCOCC2)cc1N1CCOCC1)c1ccc(-c2cn[nH]c2)o1` [I-14, N-(2,4-dimorpholinophenyl)-5-(1H-pyrazol-4-yl)furan-2-carboxamide], the EC50 (in general, the concentration that produces a half-maximal response) in test [1] was determined as 178 nM; in test [2], 1920 nM.
Consider `O=C(Nc1ccc(N2CCOCC2)cc1N1CCOCC1)c1csc(-c2cn[nH]c2)n1` [I-15, N-(2,4-dimorpholinophenyl)-2-(1H-pyrazol-4-yl)thiazole-4-carboxamide], for which the EC50 in test [1] amounted to 173 nM; in test [2] it was 484 nM.
On the same counts, the results for `CC1(O)CCN(c2cc(N3CCOCC3)ccc2NC(=O)c2cccc(-c3cn[nH]c3)n2)CC1` [I-16, N-(2-(4-hydroxy-4-methylpiperidin-1-yl)-4-morpholinophenyl)-6-(1H-pyrazol-4-yl)picolinamide] are 740 nM and 1720 nM.
`CC1(O)CCN(c2cc(N3CCOCC3)ccc2NC(=O)c2ccc(-c3cn[nH]c3)o2)CC1` [I-17, N-(2-(4-hydroxy-4-methylpiperidin-1-yl)-4-morpholinophenyl)-5-(1H-pyrazol-4-yl)furan-2-carboxamide]: the EC50 in test [1] was 216 nM; in test [2] it was 166 nM.
Take `CC1(O)CCN(c2cc(N3CCOCC3)ccc2NC(=O)c2csc(-c3cn[nH]c3)n2)CC1` [I-18, N-(2-(4-hydroxy-4-methylpiperidin-1-yl)-4-morpholinophenyl)-2-(1H-pyrazol-4-yl)thiazole-4-carboxamide]: the values for the EC50 in test [1] and in test [2] were 95.1 nM and 106 nM, respectively.
On the same counts, the results for `O=C(Nc1ccc(N2CCOCC2)cc1N1CCC(F)(F)CC1)c1ccc(-c2cn[nH]c2)o1` [I-20, N-(2-(4,4-difluoropiperidin-1-yl)-4-morpholinophenyl)-5-(1H-pyrazol-4-yl)furan-2-carboxamide] are 2330 nM and 1120 nM.
On the same counts, the results for `O=C(Nc1ccc(N2CCOCC2)cc1N1CCC(F)(F)CC1)c1csc(-c2cn[nH]c2)n1` [I-21, N-(2-(4,4-difluoropiperidin-1-yl)-4-morpholinophenyl)-2-(1H-pyrazol-4-yl)thiazole-4-carboxamide] are 465 nM and 1000 nM.
On the same counts, the results for `O=C(Nc1ccc(N2CCOCC2)cc1N1CCCC1)c1cccc(-c2cn[nH]c2)n1` [I-22, N-(4-morpholino-2-(pyrrolidin-1-yl)phenyl)-6-(1H-pyrazol-4-yl)picolinamide] are 3230 nM and 16400 nM.
Turning to `O=C(Nc1ccc(N2CCOCC2)cc1N1CCCC1)c1ccc(-c2cn[nH]c2)o1` [I-23, N-(4-morpholino-2-(pyrrolidin-1-yl)phenyl)-5-(1H-pyrazol-4-yl)furan-2-carboxamide], the values for the EC50 in test [1] and in test [2] were 2860 nM and 2270 nM, respectively.
On the same counts, the results for `O=C(Nc1ccc(N2CCOCC2)cc1N1CCCC1)c1csc(-c2cn[nH]c2)n1` [I-24, N-(4-morpholino-2-(pyrrolidin-1-yl)phenyl)-2-(1H-pyrazol-4-yl)thiazole-4-carboxamide] are 836 nM and 794 nM.
On to `O=C(Nc1cc(N2CCOCC2)ccc1N1CCCCC1)c1ccc(-c2cn[nH]c2)o1` [I-25, N-(5-morpholino-2-(piperidin-1-yl)phenyl)-5-(1H-pyrazol-4-yl)furan-2-carboxamide], for which the EC50 in test [1] amounted to 645 nM; in test [2], 532 nM.
On the same counts, the results for `O=C(Nc1cc(N2CCOCC2)ccc1N1CCCCC1)c1csc(-c2cn[nH]c2)n1` [I-26, N-(5-morpholino-2-(piperidin-1-yl)phenyl)-2-(1H-pyrazol-4-yl)thiazole-4-carboxamide] are 554 nM and 847 nM.
For the compound `O=C(Nc1cc(OCCN2CCOCC2)ccc1N1CCCCC1)c1cccc(-c2cn[nH]c2)n1` [I-27, N-(5-(2-morpholinoethoxy)-2-(piperidin-1-yl)phenyl)-6-(1H-pyrazol-4-yl)picolinamide], the figures for the half-maximal effective concentration (EC50) in test [1] and in test [2] were 2990 nM and 857 nM, respectively.
Consider `O=C(Nc1cc(OCCN2CCOCC2)ccc1N1CCCCC1)c1ccc(-c2cn[nH]c2)o1` [I-28, N-(5-(2-morpholinoethoxy)-2-(piperidin-1-yl)phenyl)-5-(1H-pyrazol-4-yl)furan-2-carboxamide], for which the concentration for a half-maximal effect (EC50) was 189 nM in test [1] and 63.8 nM in test [2].
On to `O=C(Nc1cc(OCCN2CCOCC2)ccc1N1CCCCC1)c1csc(-c2cn[nH]c2)n1` [I-29, N-(5-(2-morpholinoethoxy)-2-(piperidin-1-yl)phenyl)-2-(1H-pyrazol-4-yl)thiazole-4-carboxamide], for which the EC50 was 105 nM in test [1] and 51.2 nM in test [2].
Consider `O=C(Nc1cc(CCN2CCOCC2)c(F)cc1N1CCCCC1)c1ccc(-c2cn[nH]c2)o1` [I-31, N-(4-fluoro-5-(2-morpholinoethyl)-2-(piperidin-1-yl)phenyl)-5-(1H-pyrazol-4-yl)furan-2-carboxamide], for which the EC50 came out at 17200 nM in test [1] and 63.8 nM in test [2].
